{"source": "BindingDB's records for doi:10.1158/0008-5472.can-03-2847", "about": "(The University of Birmingham, 2004)", "key": {"[1]": {"target": "T1, Aldo-keto reductase family 1 member C3 (Homo sapiens, UniProt P42330)", "T1 sequence (P42330 whole entry)": "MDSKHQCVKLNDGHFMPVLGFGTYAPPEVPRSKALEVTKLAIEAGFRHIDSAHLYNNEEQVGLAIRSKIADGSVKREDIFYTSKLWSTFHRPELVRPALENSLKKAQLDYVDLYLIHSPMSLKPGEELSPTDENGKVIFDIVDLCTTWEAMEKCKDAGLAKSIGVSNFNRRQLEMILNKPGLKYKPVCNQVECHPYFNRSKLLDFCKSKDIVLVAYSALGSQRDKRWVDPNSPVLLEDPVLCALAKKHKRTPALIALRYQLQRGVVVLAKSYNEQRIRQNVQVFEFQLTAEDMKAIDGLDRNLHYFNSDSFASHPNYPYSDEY", "experiment": "Androsterone Reduction Inhibition Assay", "settings": "pH 7; 30 °C", "description": "Enzyme activity was measured in the reductive direction against varying concentrations of androsterone. Initial velocities were measured by observing the rate of change of absorbance of pyridine nucleotide at 340 nm. Calculation of kcat and Km values used the Leonora program, yielding estimates of the kinetic constants. […] The type of inhibition and the inhibition constants were calculated using the Leonora program. All reactions were initiated by the addition of enzyme."}, "[2]": {"target": "T1, Aldo-keto reductase family 1 member C3", "experiment": "3alpha-Androstanediol Oxidation Inhibition Assay", "settings": "pH 7; 30 °C", "description": "A fluorescence assay was used to determine the kinetic constants for the oxidation of 3alpha-androstanediol. The fluorescence emission of NADPH at 450 nm (5-nm slit width) with excitation at 340 nm (15-nm slit width) was monitored. A standard curve was constructed by monitoring fluorescence changes with incremental additions of NADPH. […] The type of inhibition and the inhibition constants were calculated using the Leonora program. All reactions were initiated by the addition of enzyme."}}}
{"smiles": "O=C(O)c1ccccc1Nc1cccc(C(F)(F)F)c1", "note": "[2-{[3-(trifluoromethyl)phenyl]amino}benzoic acid]", "values": [{"measurement": "Ki", "setting": "[1]", "value": 3100, "unit": "nM"}, {"measurement": "Ki", "setting": "[2]", "value": 140, "unit": "nM"}]}
